Test results published in US20160272645A1, “Heterocyclic Compounds and Methods of Use” (MEDIVATION TECHNOLOGIES, INC., priority 2013, published 2016).

Assays:
[1] = test system: CD69+B220+ cells (mouse spleen cells); test: B cell activation assay (IgD-stimulated CD69 on B220+ spleen cells, FACS); format: cell-based; conditions: 100 nM test compound, 30 min, then IgD 3 μg/mL 4 h, read-out: CD69 @ 100 nM (% Inh)
Method: 1 Female mouse approximately 2 months old was euthanized with CO2 and the spleen removed. The tissue was homogenized with a polished glass microscope slide. The cells were collected in 5 mL complete medium (RPMI+10% FBS+pen/strep), placed in a 15 mL falcon tube and centrifuged at 500×g for 5 min. The supernatant was discarded and the pellet was resuspended in 3 mL of ACK lysis buffer (NH4Cl 0.17M, KHCO3 10 mM, EDTA-Na2 0.1 mM, pH 7.2), incubated at 37° C. for 5 min. 2 mL complete medium was added and the mixture centrifuged at 500×g for 5 min. The supernatant was discarded and the pellet resuspended in 1 mL complete medium. The mixture was passed through a […] cell strainer and collect in 50 mL falcon tube. Enough medium was added to have a total of 10 mL. The cells were counted and seeded in 24 or 48-well plate in 1 mL complete medium at 10^6 cells/mL. The plate was placed in a 37° C. incubator for 15 min. The cells were treated for 30 min at 37° C. with 100 nM test compound dissolved in 100% DMSO. 3 μL IgD (Accurate chemical and scientific corp.) was added at a final concentration of 3 μg/mL and the mixture incubated at 37° C. for 4 h. The cells were collected in 1.5 mL eppendorf tubes, centrifuged at 500×g for 5 min and then resuspended in 100 μL of PBS+2% FBS. The following antibodies were added: α-B220 PE (pharmingen #553090), α-CD69 APC (pharmingen #60689), live/dead fixable aqua dead cell stain kit (life technologies # L34957) all at 1:300, and the mixture incubated for 15 min at 4° C. in the dark. To this was added 900 μL of PBS+2% FBS and the mixture centrifuged at 500×g for 5 min. The supernatant was removed and the pellet resuspended in 300 μL of PBS+2% FBS and mixed well. The mixture was transferred to a cytometer tube. The samples were run in the FACS Canto II cytometer and quantified by the number of CD69+B220+ cells as a percentage of the total number of B220+ alive cells.

PI3Kγ = biological target: T1, PI3Kγ (Homo sapiens, UniProt P48736); test: PI3K isoform profiling, PI3Kγ (PI3Kδ protocol); format: biochemical; conditions: for inhibition at 0.3 µM: compound 0.3 μM, read-out: PI3Kγ @ 0.3 μM (% Inh); for IC50: 10 dose IC50
T1 construct: purchased Reaction Biology Corporation
Text: PI3Kδ assay: The PIP3 product is detected by displacement of biotin-PIP3 from an energy transfer complex consisting of Europium labeled anti-GST monoclonal antibody, a GST-tagged pleckstrin homology (PH) domain, biotinylated PIP3 and Streptavidin-Allophycocyanin (APC). Excitation of Europium in the complex results in an energy transfer to the APC and a fluorescent emission at 665 nm. The PIP3 product formed by PI3-Kinase (h) activity displaces biotin-PIP3 from the complex resulting in a loss of energy transfer and thus a decrease in signal. This is a 3-step reaction: First, the kinase reaction with PIP2 substrate is carried out in the presence of ATP (10 μM), and the reaction is quenched with stop Solution, and then finally detect by adding Detection Mixture followed by incubation (10 min). Reaction procedure: 1) Prepare substrate in freshly prepared Reaction Buffer. 2) Deliver kinase into the substrate solution and gently mix. 3) Deliver compounds in 100% DMSO (1 μM) into the kinase reaction mixture by Acoustic technology (Echo550; nanoliter range), incubate for 10 min at RT. 4) Deliver ATP into the reaction mixture to initiate the reaction. 5) Incubate for 30 min at 30° C. 6) Quench the reaction with Stop Solution. 7) Add Detection Mixture, and incubate for overnight. 8) Measure HTRF: Ex=320 nm, ratio of Em=615 nm and Em=665 nm. The emission ratio is converted into μM PIP3 production based on PIP3 standard curves. The nonlinear regression to obtain the standard curve and IC50 values are performed using Graphpad Prism software. Assay Buffer: HEPES 50 mM (pH7.0), NaN3 0.02%, BSA 0.01%, Orthovanadate 0.1 mM, 1% DMSO. Detection buffer: HEPES 10 mM (pH7.0), BSA 0.02%, KF 0.16 M, EDTA 4 mM. Substrate: 10 μM PIP2 substrate (PI(4,5)P2).
Compounds of the invention were profiled in a 10 dose IC50 panel against PI3Kα, PI3Kβ, and PI3Kγ kinases, provided by Reaction Biology Corporation, applied to the PI3Kδ protocol provided in Example B1.

T1 sequence (P48736 whole entry, canonical isoform): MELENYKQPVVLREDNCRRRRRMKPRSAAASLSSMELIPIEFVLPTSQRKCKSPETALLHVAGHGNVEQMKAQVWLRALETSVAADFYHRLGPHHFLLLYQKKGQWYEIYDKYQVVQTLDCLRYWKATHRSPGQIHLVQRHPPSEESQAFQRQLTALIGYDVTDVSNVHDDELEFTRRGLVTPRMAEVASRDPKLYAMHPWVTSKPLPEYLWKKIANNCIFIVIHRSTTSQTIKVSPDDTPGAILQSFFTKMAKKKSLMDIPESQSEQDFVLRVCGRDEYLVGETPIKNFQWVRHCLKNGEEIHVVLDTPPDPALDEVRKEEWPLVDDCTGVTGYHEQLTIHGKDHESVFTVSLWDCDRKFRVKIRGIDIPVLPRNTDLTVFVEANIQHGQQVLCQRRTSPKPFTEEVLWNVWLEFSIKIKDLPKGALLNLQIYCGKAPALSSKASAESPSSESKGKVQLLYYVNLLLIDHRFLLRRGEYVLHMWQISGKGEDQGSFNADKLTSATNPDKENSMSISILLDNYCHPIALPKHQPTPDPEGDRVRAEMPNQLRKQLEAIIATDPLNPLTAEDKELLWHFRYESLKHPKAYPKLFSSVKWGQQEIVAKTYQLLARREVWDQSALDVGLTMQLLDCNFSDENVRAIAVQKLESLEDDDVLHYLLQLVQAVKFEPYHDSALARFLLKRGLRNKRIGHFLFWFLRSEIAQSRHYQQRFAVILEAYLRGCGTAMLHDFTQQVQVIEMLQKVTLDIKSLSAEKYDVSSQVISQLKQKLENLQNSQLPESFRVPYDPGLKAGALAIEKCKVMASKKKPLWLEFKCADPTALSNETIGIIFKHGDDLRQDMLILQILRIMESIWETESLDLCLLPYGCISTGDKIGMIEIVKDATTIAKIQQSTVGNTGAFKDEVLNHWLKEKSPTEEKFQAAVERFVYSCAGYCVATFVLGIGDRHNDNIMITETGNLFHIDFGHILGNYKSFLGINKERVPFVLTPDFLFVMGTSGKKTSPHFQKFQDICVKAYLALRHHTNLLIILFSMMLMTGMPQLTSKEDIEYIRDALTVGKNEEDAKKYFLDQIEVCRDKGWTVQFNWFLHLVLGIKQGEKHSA

Row | inhibition at 0.3 µM (PI3Kγ) | IC50 (PI3Kγ) | Compound | inhibition at 0.1 µM [1]
1 | 34.9% | 10.5 µM | C=CC(=O)N(CCn1nc(-c2cc(O)cc(F)c2)c2c(N)ncnc21)Cc1ccccc1 [Compound 5, N-(2-(4-amino-3-(3-fluoro-5-hydroxyphenyl)-1H-pyrazolo[3,4-d]pyrimidin-1-yl)ethyl)-N-benzylacrylamide] | 12.5 ± 22.3%
2 | -3.88% | – | C=CC(=O)N(CCn1nc(-c2cc(O)cc(F)c2)c2c(N)ncnc21)Cc1ccc(F)cc1 [Compound 10, N-{2-[4-amino-3-(3-fluoro-5-hydroxyphenyl)-1H-pyrazolo [3,4-d]pyrimidin-1-yl]ethyl}-N-[(4-fluorophenyl)methyl]prop-2-enamide] | -23.7 ± 39.7%
3 | 21.5% | – | C=CC(=O)N(CCn1nc(-c2cc(O)cc(F)c2)c2c(N)ncnc21)Cc1ccc(Cl)cc1 [Compound 12, N-{2-[4-amino-3-(3-fluoro-5-hydroxyphenyl)-1H-pyrazolo[3,4-d]pyrimidin-1-yl]ethyl}-N-[(4-chlorophenyl)methyl]prop-2-enamide] | -44.7 ± 53.6%
4 | 14.6% | – | C=CC(=O)N(CCn1nc(-c2cc(O)c(F)c(F)c2)c2c(N)ncnc21)Cc1ccc(Cl)cc1 [Compound 16, N-{2-[4-amino-3-(3,4-difluoro-5-hydroxyphenyl)-1H-pyrazolo[3,4-d]pyrimidin-1-yl]ethyl}-N-[(4-chlorophenyl)methyl]prop-2-enamide] | -44.8 ± 29.4%

Further lines, the compound ahead of its results:

Row | Compound | inhibition at 0.3 µM (PI3Kγ) | IC50 (PI3Kγ) | inhibition at 0.1 µM [1]
5 | Nc1ncnc2c1c(-c1cc(O)cc(F)c1)nn2CCNc1ccccc1 [Compound 1, 3-(4-amino-1-(2-(phenylamino)ethyl)-1H-pyrazolo [3,4-d]pyrimidin-3-yl)-5-fluorophenol] | 49.7% | – | 74.5 ± 6.72%
6 | C=CC(=O)N(CCn1nc(-c2cc(O)cc(F)c2)c2c(N)ncnc21)c1ccccc1 [Compound 2, N-(2-(4-amino-3-(3-fluoro-5-hydroxyphenyl)-1H-pyrazolo[3,4-d]pyrimidin-1-yl)ethyl)-N-phenylacrylamide] | -2.49% | 9.07 µM | -114 ± 72.2%
7 | C=CC(=O)N(CCn1nc(-c2cc(O)cc(F)c2)c2c(N)ncnc21)Cc1ccccc1F [Compound 11, N-[2-[4-amino-3-(3-fluoro-5-hydroxy-phenyl)pyrazolo[3,4-d]pyrimidin-1-yl]ethyl]-N-[(2-fluorophenyl)methyl]prop-2-enamide] | 21.4% | – | -23.7 ± 39.7%
